Measurements taken from patent US8940911B2, “Squarylated lactones inhibitors for bacterial biofilm formation” (Syracuse University, priority 2012, dated 2015).

Columns and labels:
[1] = system: E. coli RP437; assay: Static biofilm inhibition assay (crystal violet, 96-well plate); format: cell-based, Escherichia coli
Source text: A primary objective was to test the ability of SHLs to inhibit biofilm formation against E. coli RP437. […] Viable controls were required that would allow us to measure and compare the activity of SHLs against known biofilm inhibitors and naturally occurring AI-1 signal molecules. […] The activity of this class of molecule is presumably similar or even marginally higher than that of brominated furanone (BF8 48) (56%).
For the present invention, the E. coli RP437 biofilms were allowed to develop in a 96-well plate in the absence or presence of SHLs. After 24 hours, the planktonic bacteria and remaining media were removed and the crystal violet was introduced in the wells. The bacterial biofilm being formed at the air/liquid interface on the inside wall of the well is stained readily by crystal violet. After removing the excess crystal violet and repeatedly washing the wells with water, followed by ethanol solubilization of the dye, allows quantification of the amount of biofilm by spectrophotometry (OD600). […] We believe that the observed biofilm inhibition activity cannot be directly attributed to any predominant structural feature inherent in the SHLs. Rather, the small deviations in the structures of the SHLs and their effect on biofilm formation could be a result of the nature of non-covalent forces that arise during SHLs presumed binding within the receptor active site.
An overnight culture of E. coli RP437 grown in LB media (OD600 of 1.0) containing streptomycin (10 μg/mL) was subsequently sub-cultured to an OD600 of 0.04 (1:100 dilution with LB media). To each well in the solvent resistant polypropylene or polystyrene-based 96-well microtiter plates were added 200 μL of the sub-cultured bacteria respectively. To each of the wells containing the bacterial cultures varying concentrations of the synthetic molecules was added and the contents in each well were gently mixed. Control wells comprised of untreated bacterial culture (four replicates) and the LB media (four replicates). The microtiter plates were then covered and wrapped in a Saran wrap and allowed to incubate at 37° C. for 24 hours without shaking. After that time, the microbial medium in each well was discarded and the remaining biofilm that was formed during incubation was stained with 225 μL of a 0.1% crystal violet solution and allowed to incubate at room temperature for 30 minutes. After the incubation period, the crystal violet was discarded and the wells were gently washed twice with water (230-250 μL) and allowed to air dry for 15-20 minutes. For the purpose of solubilizing the remaining crystal violet that had stained the biofilm present in the interior of the 96-well plates, a 250 μL solution of 95% ethanol was used. After the addition of 95% ethanol, the contents of each well were mixed thoroughly and allowed to sit for 15-20 minutes. Finally, the biofilm formed was quantified by transferring 100 μL of the ethanol solution into a fresh polystyrene microtiter dish that was subsequently read by an absorbance plate reader (A600). After elimination of background absorbance, the percentage inhibition was calculated by dividing the amount of absorbed crystal violet in wells that contained the synthetic compound by the amount of absorbed crystal violet in wells that contained bacteria only (control). Biofilm assays for each synthetic compound were repeated two to three times and each concentration considered for inhibition studies were tested over four replicates.

[2] = system: E. coli RP437; assay: Growth studies (OD600) of planktonic E. coli; format: cell-based, Escherichia coli; conditions: for toxicity / growth inhibition of E. coli (in words): OD600 over 24 h, 1-300 μM as stated in the sentence
Protocol: The toxicity of the SHLs and BF8 at a range of concentrations (1, 10, 25, 50, 100, 200 and 300 μM) was evaluated against E. coli RP437 to determine whether these small molecules elicit their inhibition effect through a toxic mechanism. […] The effect induced by SHLs at 200 μM, the inhibitory concentration at which maximum biofilm inhibition occurs was interesting to observe.
The toxicity profile of BF8 48 would in turn allow a comparison to the library of SHLs. Parallel growth studies using BF8 48 and vinyl-SHL 3 treated and untreated control cultures in 96-well plates were performed. Inhibitor concentrations used during growth studies ranged from […]-300 μM.
An overnight culture of E. coli RP437 grown in LB media (OD600 of 1.0) containing streptomycin (10 μg/mL) was subsequently sub-cultured to an OD600 of 0.04 (1:100 dilution with LB media). To each well in the solvent resistant polypropylene or polystyrene-based 96-well microtiter plates were added varying concentrations of the synthetic molecules respectively (1, 10, 25, 50, 100, 200 and 300 μM). Further, to each of the wells containing the known concentrations of synthetic molecules was added 200 μL of the sub-cultured bacteria and the contents in each well were gently mixed. Control wells comprised of untreated bacterial culture (four replicates) and the LB media (four replicates). The microtiter plates were then covered and allowed to incubate at 37° C. for 24 hours with shaking at 200 rpm. The OD600 values in each well was measured at 0, 2, 4, 6, 8, 12, 24 h after inoculation using Biotek ELx800 absorbance plate reader using Gen5™ data analysis software. For each synthetic compound, the growth experiments were repeated twice and each of the concentrations was tested over four replicates.

[3] = E. coli RP437, 200 μM, 24 h, crystal violet

Row | SMILES | biofilm inhibition (in words) [1, 3] | biofilm inhibition values used in the ratio 26/57×100 ([1]; E. coli RP437, unit not given) | E. coli growth relative to untreated sample ([2]; 200 μM, at 4 h, OD600) [%] | toxicity / growth inhibition of E. coli (in words) [2] | toxicity / growth inhibition of E. coli (in words) ([2]; listed as Vinyl-SHL 3) | inhibition of biofilm formation [1, 3] [%]
1 | C=Cc1c(NC2CCOC2=O)c(=O)c1=O (stereo not drawn) [vinyl-SHL 3] | greatest inhibition of biofilm | 57 | 77 | less toxicity compared to BF8 48 | after 8 h, E. coli RP437 growth reverts back normally | 
2 | CCCCOc1c(NC2CCCC2)c(=O)c1=O [butoxy-SCPA 46] |  |  |  | no inhibition of E. coli growth up to 300 μM |  | 42
3 | CC1=C(Br)/C(=C/Br)OC1=O [BF8 48, reference compound] |  |  |  | marked attenuation of E. coli growth |  | 56
